Experiments:
[1] = system: HEK293T/17-ATF4 uORF-Luc-Puro monoclonal cells; assay: Cell activity test: ATF4 luciferase reporter, thapsigargin-induced stress; assay type: cell-based; details: Homo sapiens, HEK-293T; ATF4 reporter expression, 50 nM thapsigargin, 6 hours
Description: The ATF4 luciferase reporter plasmid consists of two parts, i.e., the 5′ untranslated region sequence of the ATF4 gene and the luciferase coding sequence. Specifically, the ATF4 5′ untranslated region sequence (NCBI database number BC022088.2) containing two upstream open reading frames (uORFs), and the firefly luciferase encoding gene were cloned into the pLVX-Puro vector (YouBio, VT1465). The lentivirus packaging plasmids were psPAX2 (YouBio, VT1444) and pMD2.G (YouBio, VT1443). HEK293T/17 cells were transfected with the above three plasmids simultaneously using X-tremeGENE 9 DNA transfection reagent, and after 48 hours, a culture medium containing lentivirus was collected. HEK293T/17 cells transduced with the virus were screened with 1 μg/mL puromycin, and then monoclonal cells were obtained by limiting dilution.
By using this cell line and the cold fluorescence readings, the translational regulation of ATF4 can be detected, and the activity of the eIF2B activator can be tested. The specific experimental process is as follows: 6000 HEK293T/17-ATF4 uORF-Luc-Puro monoclonal cells were plated in a 384-well plate and allowed to adhere overnight. The test compounds were dissolved in DMSO and added together with 50 nM thapsigargin to the cell culture medium and incubated for 6 hours, wherein the thapsigargin was used to cause cellular stress and upregulate the protein translation of ATF4. Six hours after the addition, the cells were lysed using the One-Glo Luciferase Assay Kit (Promega #E6120), and then the cold fluorescence values were read using the LUM program of the EnVision 2104 plate reader.
The ATF4 reporter expression % was calculated as follows:
[formula] • ave_vc: average signal value of negative control • ave_pc: average signal value of positive control • ave_sample: average signal value of sample
The dose-response curves were fitted, and the EC50 values were calculated.
The nonlinear regression log (inhibitor) vs. response—variable slope (four parameters) method of GraphPad 9 software was used to fit the corresponding relationship between the ATF4 reporter expression % and the compound concentration.
X-axis: log value of compound concentration; Y-axis: ATF4 reporter expression %; Top: evaluation of upper asymptote of curve; Bottom: evaluation of lower asymptote of curve; Hillslope: slope of the fitted curve.

[2] = In vitro liver microsome stability; assay type: in vitro ADME; details: liver microsomes, NADPH, 37° C.
Protocol: A 5 mM MgCl2 100 mM K-Mg buffer solution was pre-heated. 5 μL of a 10 mM compound and a reference stock solution were added to 95 μL of acetonitrile (ACN) to prepare a spiked solution. 1.5 μL of a 500 µM spiked solution and 18.75 μL of 20 mg/mL liver microsomes were added to 479.8 μL of the K-Mg buffer solution. NADPH was dissolved in the K-Mg-buffer solution to prepare an NADPH stock solution ([…]). At different time points (0, 5, 15, 30 and 45 minutes), 30 μL of a 1.5 μM spiked solution containing the microsomes was evenly dropped into an assay plate. The plate was preincubated at 37° C. for 5 minutes. At 0 min, 200 μL of ACN containing IS (internal standard, tolbutamid/terfenadine) was added to the wells, and then 15 μl of the NADPH stock solution (6 mM) was added. For other time points, 15 μL of the NADPH stock solution (6 mM) was added to the wells to initiate the reaction and start the timing. At 5, 15, 30 and 45 min, the reaction was stopped by adding 200 μL of ACN containing IS to the corresponding wells of the plate. After quenching, the plate was shaken at 600 rpm for 10 minutes and then centrifuged at 4000 rpm for 50 minutes. 80 μL of the supernatant from each well was transferred to a 96-well sample plate containing 160 μL of pure water for UPLC/MS/MS analysis.

CYP2C9 = biological target: T1, CYP2C9 (Homo sapiens, UniProt P11712); assay: P450 enzyme inhibition, CYP2C9; assay type: in vitro ADME; details: human liver microsome, substrate Diclofenac sodium
T1 construct: A phosphate buffer solution of liver microsomes was prepared; from tissue; host or cells: human liver microsomes
Protocol: A phosphate buffer solution of liver microsomes was prepared. 169 μL of the phosphate buffer solution of liver microsomes and 1 μL of working solutions of various concentrations of test compounds or positive control compounds were added to a 96-well plate. The culture plate was placed in a water bath and pre-heated at 37° C. for 15 minutes. After the incubation, 10 μL of substrates were added to the culture plate (1 μL of substrates and 9 μL of the K-Mg buffer solution were added to the plate for CYP3A4-T). The incubation mixture was mixed on a rotating mixer for 10 seconds, and then 20 μL of a 10 mM NADPH solution was added to start the reaction at a final concentration of 1 mM. The experiment was repeated twice. At the predetermined time points listed in Table 4, the reaction was quenched by adding 400 μL of the quenching solution (cold ACN containing 500 nM mephetedrine and 10 nM terfenadine). Centrifugation was performed at 3220 g for 50 minutes at 4° C. 100 μl of the supernatant was transferred to a new plate. The supernatant was diluted with 100 μL of pure water. The mixture was mixed evenly, and the sample was analyzed by UPLC-MS/MS.

T1 sequence (P11712 whole entry): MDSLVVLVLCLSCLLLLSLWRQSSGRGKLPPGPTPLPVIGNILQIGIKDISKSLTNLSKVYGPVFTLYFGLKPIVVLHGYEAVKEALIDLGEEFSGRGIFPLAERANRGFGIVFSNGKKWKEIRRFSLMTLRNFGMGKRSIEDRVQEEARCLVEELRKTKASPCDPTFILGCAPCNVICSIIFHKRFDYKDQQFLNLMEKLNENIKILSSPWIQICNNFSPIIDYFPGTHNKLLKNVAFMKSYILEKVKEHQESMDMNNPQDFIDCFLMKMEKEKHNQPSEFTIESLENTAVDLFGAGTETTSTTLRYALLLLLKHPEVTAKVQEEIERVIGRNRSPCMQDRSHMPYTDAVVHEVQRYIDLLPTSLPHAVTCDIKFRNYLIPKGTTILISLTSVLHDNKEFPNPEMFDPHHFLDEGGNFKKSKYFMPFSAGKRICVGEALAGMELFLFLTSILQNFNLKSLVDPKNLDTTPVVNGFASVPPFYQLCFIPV

## O=C(COc1ccc(Cl)c(F)c1)N[C@H]1CC[C@H](c2nnc(N3CC(OC(F)(F)F)C3)o2)CC1 [Compound 6]
[1]
  EC50: < 0.001 µM
[2]
  half-life at 1 µM: > 1.5 h
CYP2C9
  IC50: > 10 µM
